From patent US11084824B2, “Pyrazolopyrimidine derivatives, preparation method thereof, and pharmaceutical composition for use in preventing or treating cancer, autoimmune disease and brain disease containing the same as an active ingredient” (Korea Research Institute of Chemical Technology, priority 2017, dated 2021)

Assays:
[1] = target: Bruton's tyrosine kinase (BTK) (Homo sapiens (Human), UniProt Q06187); assay: BTK enzyme inhibition assay (Cisbio HTRF kit); type: biochemical; conditions: 30 minutes reaction, fluorescence 665 nm/620 nm
Sequence of Bruton's tyrosine kinase (BTK) (Q06187 whole entry): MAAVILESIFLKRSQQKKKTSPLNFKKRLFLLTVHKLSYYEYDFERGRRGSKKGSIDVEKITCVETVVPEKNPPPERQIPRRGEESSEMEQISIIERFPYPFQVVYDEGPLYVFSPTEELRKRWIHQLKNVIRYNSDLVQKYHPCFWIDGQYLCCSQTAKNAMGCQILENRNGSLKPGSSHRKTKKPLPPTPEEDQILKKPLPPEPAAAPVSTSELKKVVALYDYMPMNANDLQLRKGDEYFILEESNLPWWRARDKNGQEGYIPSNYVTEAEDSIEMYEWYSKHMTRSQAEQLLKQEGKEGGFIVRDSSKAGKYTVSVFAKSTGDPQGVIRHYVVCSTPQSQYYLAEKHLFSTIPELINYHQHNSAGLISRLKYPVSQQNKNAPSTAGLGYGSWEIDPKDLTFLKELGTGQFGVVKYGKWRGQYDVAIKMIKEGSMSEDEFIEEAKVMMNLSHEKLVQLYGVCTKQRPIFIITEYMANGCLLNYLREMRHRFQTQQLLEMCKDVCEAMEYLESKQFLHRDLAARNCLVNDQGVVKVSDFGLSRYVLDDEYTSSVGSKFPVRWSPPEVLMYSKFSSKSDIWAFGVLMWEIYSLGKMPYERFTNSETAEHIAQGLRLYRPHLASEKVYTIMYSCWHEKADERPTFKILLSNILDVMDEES
Protocol: BTK enzyme evaluation with each compound of examples of the invention was performed by using BTK enzyme inhibition diagnosis kit (Cisbio, Codolet, France). […] Then, EDTA (ethylenediaminetetraacetic acid) was added thereto in order to terminate the reaction. At this time, the EDTA solution contained curopium-containing antibody (antiphosphoresidue antibody) and straptavidin-XL665 (SA-XL665, Cisbio). After incubation for 1 hour, fluorescence was measured. The emission values of 665 nm and 620 nm excited at 337 nm were measured with Envision reader. IC50 values were determined using GraphPad prism (version 5). Herein, the curve indicates a nonlinear regression model, which was determined by logarithmic functions and reaction values.

TMD8 cells = assay: TMD8 cell growth inhibition (WST-1, 72 hours); type: cell-based; conditions: Homo sapiens, TMD8 ABC type DLBCL cell line, WST-1, absorbance 450 nm
Protocol: TDM-8 cells, the ABC (activated B-cell) type DLBCL (diffuse large B cell lymphoma) cell line sensitive to BTK signaling, were seeded in a 96-well plate at 30% confluency. Then, the compounds of the invention were treated thereto at different concentrations. 72 hours later, WST-1 reagent was added thereto. One hour later, absorbance was measured at 450 nm by using a spectramax spectrophotometer.

[2] = system: human peripheral blood mononuclear cells (human PBMC); assay: TNFa inhibition in human PBMC monocytes (ELISA); type: cell-based; conditions: TNFa concentration in culture medium by ELISA, HSA/anti-HSA antibody coated plate, overnight culture, read-out: hPBMC IC50
Protocol: 20 ug/ml of human serum albumin (HAS) solution was prepared and distributed in a 96-well plate (200 μl/well). Reaction was induced at 4° C. for overnight and then 10% FBS solution was treated thereto (200 μl/well), followed by elimination. Lastly, 10 ug/ml of anti-HSA antibody was treated thereto (200 μl/well) for 1 hour, followed by elimination. An appropriate number of monocytes of human peripheral blood mononuclear cells (human PBMC) were distributed in the prepared 96-well plate. The target compounds were treated thereto at different concentration via serial dilution method, followed by culture for overnight. IC50 values of the compounds were determined by confirming the TNFa inhibition activity of the compounds between the maximum concentration (positive control) and the minimum concentration (negative control) of TNFa, and the results are shown in Table 8.

Row | IC50 [1] [µM] | Structure (SMILES) | IC50 (TMD8 cells) [µM] | IC50 [2] [µM]
1 | 0.002 | C=CC(=O)N1CCc2ccc(Nc3ncc4c(Nc5c(C)cccc5C)nn(C)c4n3)cc2C1 [Example 14, 1-(7-(3-(2,6-dimethylphenylamino)-1-methyl-1H-pyrazolo[3,4-d]pyrimidine-6-ylamino)-3,4-dihydroisoquinoline-2(1H)-yl)prop-2-en-1-one] | 0.032 | 0.031
2 | 0.1 | COc1cc2c(cc1Nc1ncc3c(Nc4c(C)cccc4C)nn(C)c3n1)CCNC2 [Example 4, N^1-(2,6-dimethylphenyl)-N^6-(7-methoxy-1,2,3,4-tetrahydroisoquinoline-6-yl)-1-methyl-1H-pyrazolo[3,4-d]pyrimidine-3,6-diamine] | 0.572 | 0.209
3 | 0.003 | CC(=O)N1CCc2ccc(Nc3ncc4c(Nc5c(Cl)cccc5Cl)nn(C)c4n3)cc2C1 [Example 13, 1-(7-(3-(2,6-dichlorophenylamino)-1-methyl-1H-pyrazolo[3,4-d]pyrimidine-6-ylamino)-3,4-dihydroisoquinoline-2(1H)-yl)ethaneone] | 0.118 | 0.0055
4 | 0.01 | Cc1cccc(C)c1Nc1nn(C)c2nc(Nc3ccc4c(c3)CCN(C(=O)C(F)(F)F)C4)ncc12 [Example 6, 1-(6-(3-(2,6-dimethylphenylamino)-1-methyl-1H-pyrazolo[3,4-d]pyrimidine-6-ylamino)-3,4-dihydroisoquinoline-2(1H)-yl)-2,2,2-trifluoroethaneone] | 0.159 | 0.113
5 | 0.003 | CC(=O)N1CCc2cc(Nc3ncc4c(Nc5c(Cl)cccc5Cl)nn(C)c4n3)ccc2C1 [Example 16, 1-(6-(3-(2,6-dichlorophenylamino)-1-methyl-1H-pyrazolo[3,4-d]pyrimidine-6-ylamino)-3,4-dihydroisoquinoline-2(1H)-yl)ethaneone] | 0.061 | 0.0032
